Read-outs that look alike come from different tables or passages of the source.
B1: Lucentis: Fab fragment of a humanized monoclonal antibody that binds all isoforms of VEGF-A (antibody, chains of the INN, looked up, V domains shown)
VH: EVQLVESGGGLVQPGGSLRLSCAASGYDFTHYGMNWVRQAPGKGLEWVGWINTYTGEPTYAADFKRRFTFSLDTSKSTAYLQMNSLRAEDTAVYYCAKYPYYYGTSHWYFDVWGQGTLVTVSS
VL: DIQLTQSPSSLSASVGDRVTITCSASQDISNYLNWYQQKPGKAPKVLIYFTSSLHSGVPSRFSGSGSGTDFTLTISSLQPEDFATYYCQQYSTVPWTFGQGTKVEIK
modifications: Fab

Columns and labels:
[1] = test system: laser-induced choroidal neovascularization (CNV); assay: Mouse laser-induced CNV, prevention; details: single ivt injection
From the text: METHODS. CNV was generated by laser-induced rupture of Bruch's membrane. […] A hand-held cover slip was applied to the cornea and used as a contact lens to aid visualization of the fundus. Three to four retinal burns were placed in randomly assigned eye (right or left eye for each mouse) using the Alcon 532 nm EyeLite laser with a slit lamp delivery system. The laser burns were used to generate a rupture in Bruch's membrane, which was indicated ophthalmoscopically by the formation of a bubble under the retina. Only mice with laser burns that produced three bubbles per eye were included in the study. Burns were typically placed at the 3, 6, 9 or 12 o'clock positions in the posterior pole of the retina, avoiding the branch retinal arteries and veins.
Each mouse was randomly assigned into one of the following treatment groups: noninjected controls, sham-injected controls, vehicle-injected mice, or one of three Compound-injected groups. Control mice received laser photocoagulation in both eyes, where one eye received a sham injection, i.e. a pars plana needle puncture. For intravitreal-injected animals, one laser-treated eye received a 2 or 5 μl intravitreal injection of 0.1%-3% of a RTKi or vehicle. For prevention studies, the intravitreal injection was performed immediately after laser photocoagulation. […] At 14 days post-laser, all mice were anesthetized and systemically perfused with fluorescein-labeled dextran. Eyes were then harvested and prepared as choroidal flat mounts with the RPE side oriented towards the observer. All choroidal flat mounts were examined using a fluorescent microscope. Digital images of the CNV were captured, where the CNV was identified as areas of hyperfluorescence within the pigmented background. Computerized image analysis was used to delineate and measure the two dimensional area of the hyperfluorescent CNV per lesion (μm^2) for the outcome measurement. The median CNV area/burn per mouse per treatment group or the mean CNV area/burn per treatment group was used for statistical analysis depending on the normality of data distribution; P<0.05 was considered significant.

[2] = test system: VEGF-induced retinal vascular permeability; assay: VEGF-induced retinal vascular permeability in the rat, intravitreal delivery; format: in vivo; details: for Efficacy (0.1%) / Efficacy (1%): inhibition of VEGF-induced RVP vs vehicle-injected controls, *P<0.05; for Efficacy (0.1%): single ivt injection of 0.1% suspension; for Efficacy (1%): single ivt injection of 1% suspension; for ED50 (nmole) / ED50 (μg) / Potency: rat VEGF-induced RVP; for ED50 (nmole) / ED50 (μg): dose-response, single ivt injection; for Potency: relative to reference standard, * = equipotent, 95% CL encompass 1.0
Protocol: METHODS: Adult Sprague-Dawley rats were anesthetized with intramuscular ketamine/xylazine and their pupils dilated with topical cycloplegics. […] Ten μl of each compound was intravitreally injected in each treatment eye (n=5˜6 animals per group). Three days following first intravitreal injection, all animals received an intravitreal injection of 10 μl 500 ng hr VEGF in both eyes. Twenty-four hours post-injection of VEGF, intravenous infusion of 3% Evans blue dye was performed in all animals, where 50 mg/kg of Evans blue dye was injected via the lateral tail vein during general anesthesia. After the dye had circulated for 90 minutes, the rats were euthanized. The rats were then systemically perfused with balanced salt solution, and then both eyes of each rat were immediately enucleated and the retinas harvested using a surgical microscope. After measurement of the retinal wet weight, the Evans blue dye was extracted by placing the retina in a 0.2 ml formamide (Sigma) and then the homogenized and ultracentrifuged. Blood samples were centrifuged and the plasma diluted 100 fold in formamide. For both retina and plasma samples, 60 μl of supernatant was used to measure the Evans blue dye absorbance (ABS) with at 620/740 nm. The blood-retinal barrier breakdown and subsequent retinal vascular permeability as measured by dye absorbance were calculated as means+/−s.e.m. of net ABS/wet weight/plasma ABS. One way ANOVA was used to determine an overall difference between treatment means. And a test or Man-Whitney rank sum test was performed for a pair-wise comparison between treatment groups, where P<0.05 was considered significant.

[3] = test system: bovine retinal endothelial cells (BRECs); assay: VEGF-induced proliferation of bovine retinal endothelial cells (BrdU ELISA); format: cell-based; details: for EC50: Bos taurus, Endothelial cell, read-out: VEGF ind BREC prolif EC50; for activity against VEGF-induced proliferation: in words, compared to Compounds I-VII
Protocol: METHODS. […] After another 22-24 hours the cells are treated with or without 50 ng/ml VEGF media and the test compounds in the 1% FBS media. After 30 hours BrdU is then added for the final 16 hours of the incubation. All cells are then fixed and assayed with a colorimetric BrdU ELISA kit.

[4] = test system: preretinal neovascularization; assay: Rat oxygen-induced retinopathy (OIR) model, regression; format: in vivo; details: for ED50 (nmole) / ED50 (μg): dose-response, single ivt injection; for Potency: relative to reference RTKi (=1)
From the text: (§1) METHODS: Pregnant Sprague-Dawley rats were received at 14 days gestation and subsequently gave birth on Day 22±1 of gestation. Immediately following parturition, pups were pooled and randomized into separate litters (n=17 pups/litter), placed into separate shoebox cages inside oxygen delivery chamber, and subjected to an oxygen-exposure profile from Day 0-14 postpartum. Litters were then placed into room air from Day 14/0 through Day 14/6 (days 14-20 postpartum). For prevention studies, each pup was randomly assigned into various treatment groups on Day 14/0. For those randomized into an injection treatment group: one eye received a 5 μl intravitreal injection of between 0.01%-1% of a RTKi and the contralateral eye received a 5 μl intravitreal injection of vehicle. At Day 14/6 (20 days postpartum), all animals were euthanized. For regression studies, each pup was randomly assigned as an oxygen-exposed control or into various treatment groups on […]. For those randomized into an injection treatment group: one eye received a 5 μl intravitreal injection of between 0.01%-1% RTKi and the contralateral eye received a 5 μl intravitreal injection of vehicle. At Day 14/7 (21 days postpartum), all animals were euthanized. Immediately following euthanasia, retinas from all rat pups were harvested, fixed in 10% neutral buffered formalin for 24 hours, subjected to ADPase staining, and fixed onto slides as whole mounts. Digital images were acquired from each retinal flat mount that was adequately prepared. Computerized image analysis was used to obtain a NV clockhour score from each readable sample. Each clockhour out of 12 total per retina was assessed for the presence or absence of preretinal NV. Statistical comparisons using median scores for NV clockhours from each treatment group were utilized in nonparametric analyses. Each noninjected pup represented one NV score by taking the average value of both eyes and was used in comparisons against each dosage group. Because the pups were randomly assigned and no difference was observed between oxygen-exposed control pups from all litters, the NV scores were combined for all treatment groups. P≦0.05 was considered statistically significant.

[5] = test system: preretinal neovascularization; assay: Rat oxygen-induced retinopathy (OIR) model, prevention; format: in vivo; details: for ED50 (nmole) / ED50 (μg) / Potency: Rat OIR Prevention; for ED50 (nmole) / ED50 (μg): dose-response, single ivt injection; for Potency: relative to reference RTKi (=1); for Efficacy (0.1%) Median-value / Efficacy (1%) Median-value: rat OIR prevention, vs vehicle, *P<0.05; for Efficacy (0.1%) Median-value: single ivt injection of 0.1% suspension; for Efficacy (1%) Median-value: single ivt injection of 1% suspension
From the text: as §1

KDR (VEGFR2) kinase = biological target: T1, KDR (VEGFR2) kinase (Homo sapiens, UniProt P35968); assay: KDR HTRF kinase assay (KinEASE-TK); format: biochemical; details: for IC50: HTRF enzyme assay, KDR (human VEGFR2); for activity against KDR: in words, compared to Compounds I-VII
T1 construct: purchased Cell Signaling Technology
Protocol: METHODS. A 7-point HTRF (Homogeneous Time Resolved Fluorescence) kinase assays were performed using a Biomek 3000 Robotic Workstation in a 96-well plate format to determine IC50 values for the test compounds for KDR (VEGFR2) kinase using KinEASE-TK kit from CisBio. This is a general kit for tyrosine kinases including KDR kinase. The KDR kinase was purchased from Cell Signaling Technology. The assay is run in two steps. The phosphorylation of the biotin-tagged generic peptide substrate ([…]) is initiated by the addition of ATP ([…]) in the presence of KDR kinase (5 ng in […] reaction mixture) in step 1 and the reaction is stopped after 30 min incubation at room temperature by the addition of a mixture containing two HTRF detection reagents and EDTA in step 2. The substrate, enzyme, and ATP dilutions were made with the buffer provided by CisBio. Compound dilutions were made either in 5% DMSO or 10:10, (DMSO:Ethanol) to prepare 4× working stock solutions. The HTRF detection reagents were an antibody to phosphotyrosine, labeled with Eu(K) (the HTRF donor), and a streptavidin-XL665 (the HTRF acceptor).

[6] = test system: best-corrected visual acuity (BCVA); details: intravitreal, 4 week intervals, Phase III trials; cited from earlier work
[7] = 20 μg/1.0%, * significant vs vehicle-injected controls
[8] = 50 ng/ml VEGF, BrdU incorporation

T1 sequence (P35968 20-1356): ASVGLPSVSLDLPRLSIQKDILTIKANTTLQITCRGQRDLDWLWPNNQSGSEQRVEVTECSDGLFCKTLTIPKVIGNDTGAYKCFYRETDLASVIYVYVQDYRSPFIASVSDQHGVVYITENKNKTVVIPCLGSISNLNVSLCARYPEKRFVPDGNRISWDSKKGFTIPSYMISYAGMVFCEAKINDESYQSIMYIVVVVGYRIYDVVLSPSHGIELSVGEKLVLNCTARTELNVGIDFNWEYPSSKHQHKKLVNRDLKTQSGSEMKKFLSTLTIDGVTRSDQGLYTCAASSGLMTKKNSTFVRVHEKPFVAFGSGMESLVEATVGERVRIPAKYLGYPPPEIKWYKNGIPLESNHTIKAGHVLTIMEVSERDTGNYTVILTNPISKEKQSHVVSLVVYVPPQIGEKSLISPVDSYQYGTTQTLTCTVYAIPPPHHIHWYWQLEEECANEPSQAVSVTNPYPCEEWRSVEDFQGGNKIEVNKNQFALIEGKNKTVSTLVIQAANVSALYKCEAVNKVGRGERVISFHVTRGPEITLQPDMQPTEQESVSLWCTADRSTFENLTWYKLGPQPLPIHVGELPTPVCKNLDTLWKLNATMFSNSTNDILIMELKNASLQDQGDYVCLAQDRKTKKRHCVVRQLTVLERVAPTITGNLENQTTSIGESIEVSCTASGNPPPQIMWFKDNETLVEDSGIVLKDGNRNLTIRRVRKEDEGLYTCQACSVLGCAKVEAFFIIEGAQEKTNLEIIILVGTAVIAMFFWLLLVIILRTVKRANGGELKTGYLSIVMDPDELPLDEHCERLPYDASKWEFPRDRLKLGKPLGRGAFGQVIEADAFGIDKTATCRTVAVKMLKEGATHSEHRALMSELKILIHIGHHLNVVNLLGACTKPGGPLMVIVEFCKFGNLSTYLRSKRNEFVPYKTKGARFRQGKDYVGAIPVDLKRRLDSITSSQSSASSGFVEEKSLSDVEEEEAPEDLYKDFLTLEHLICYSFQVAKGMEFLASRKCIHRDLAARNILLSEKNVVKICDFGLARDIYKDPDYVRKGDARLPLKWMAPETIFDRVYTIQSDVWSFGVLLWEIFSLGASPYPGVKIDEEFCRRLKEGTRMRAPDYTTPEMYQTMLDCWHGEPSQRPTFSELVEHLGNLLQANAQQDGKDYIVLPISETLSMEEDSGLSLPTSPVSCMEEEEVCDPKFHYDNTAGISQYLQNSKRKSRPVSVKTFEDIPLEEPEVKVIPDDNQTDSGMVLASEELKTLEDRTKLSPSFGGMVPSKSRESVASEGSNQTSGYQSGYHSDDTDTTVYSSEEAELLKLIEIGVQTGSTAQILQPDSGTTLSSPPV

Molecule	Prevention Efficacy ([1]; 2 μg/0.1%)	Prevention Efficacy [1, 7]	Efficacy (0.1%) [2]	Efficacy (1%) [2]	ED50 (nmole) [2]	ED50 (μg) [2]	Potency [2]	ED50 (nmole) [4]	ED50 (μg) [4]	Potency [4]	ED50 (nmole) [5]	ED50 (μg) [5]	Potency [5]	Efficacy (0.1%) Median-value [5]	Efficacy (1%) Median-value [5]	EC50 [3, 8]	further results
Cc1cccc(NC(=O)Nc2ccc(-c3cncc4[nH]nc(N)c34)cc2)c1 [Compound I, 1-[4-(3-Amino-1H-pyrazolo[3,4-c]pyridin-4-yl)-phenyl]-3-m-tolyl-urea]	−53.8%	37.6%	65.4%*	88.9%*	4.04^ nmole	1.447 µg	1.2*	25.47 nmol	9.13 µg	2.26	13.44 nmol	4.82 µg	5.75	100%*	100%*	–	EC50 [3]: 0.16 nM
Cc1cccc(NC(=O)Nc2ccc(-c3csc4c(-c5ccncc5)cnc(N)c34)cc2)c1 [VI, 1-[4-(4-Amino-7-pyridin-4-yl-thieno[3,2-c]pyridin-3-yl)-phenyl]-3-m-tolyl-urea]	–	–	106.5%*	70.6%*	–	–	–	39.46 nmol	17.82 µg	1.75	13.31 nmol	6.01 µg	3.86	35.7%	88.4* %	0.07 ± 0.069 nM	–
Cc1cccc(NC(=O)Nc2ccc(-c3csc4ccnc(N)c34)cc2)c1 [V, 1-[4-(4-Amino-thieno[3,2-c]pyridin-3-yl)-phenyl]-3-m-tolyl-urea]	–	–	64.0%	40.4%	3.8^ nmole	1.42 µg	1.38*	–	–	–	24.11 nmol	9.03 µg	1.94	16.9%	100%*	1.57 ± 1.24 nM	–
Cc1cccc(NC(=O)Nc2ccc(-c3csc4c(-c5cccnc5)cnc(N)c34)cc2)c1 [VII, 1-[4-(4-Amino-7-pyridin-3-yl-thieno[3,2-c]pyridin-3-yl)-phenyl]-3-m-tolyl-urea]	–	–	84%*	73.5%*	5.47 nmol	2.47 µg	0.621*	20.86 nmol	9.42 µg	2.49	15.74 nmol	7.11 µg	3.23	9.6%	100* %	0.11 ± 0.086 nM	–
Cc1ccc(F)c(NC(=O)Nc2ncc(-c3cccc4[nH]nc(N)c34)cn2)c1 [IX]	–	–	–	–	–	–	–	–	–	–	–	–	–	–	–	–	VEGF ind BREC prolif EC50 [3, 8]: Not Active; activity against VEGF-induced proliferation [3]: completely inactive; IC50 (KDR (VEGFR2) kinase): > 10000 nM; activity against KDR (KDR (VEGFR2) kinase): essentially have no activity
Nc1n[nH]c2cccc(-c3ccc(NC(=O)Nc4c(Cl)cccc4Cl)cc3)c12 [VIII]	–	–	–	–	–	–	–	–	–	–	–	–	–	–	–	–	VEGF ind BREC prolif EC50 [3, 8]: Not Active; activity against VEGF-induced proliferation [3]: completely inactive; IC50 (KDR (VEGFR2) kinase): > 10000 nM; activity against KDR (KDR (VEGFR2) kinase): essentially have no activity
COCCOc1ccc(-c2ccc(NC(=O)Nc3cccc(C)c3)cc2)c2c(N)n[nH]c12 [IV, 1-{4-[3-Amino-7-(2-methoxy-ethoxy)-1H-indazol-4-yl]-phenyl}-3-m-tolyl-urea]	2 μg/0.1% = 1.1%	20 μg/1.0% = 49.7%*	73.9%*	−148.2%	–	–	–	–	–	–	13.23 nmol	5.71 µg	4.2	100%*	100%*	0.1 ± 0.01 nM	Prevention Efficacy ([1]; 6 μg/0.3%): 6 μg/0.3% = 13.9%
Cc1cc(O)cc(NC(=O)Nc2ccc(-c3cccc4[nH]nc(N)c34)cc2)c1 [III, 1-[4-(3-Amino-1H-indazol-4-yl)-phenyl]-3-(3-hydroxy-5-methyl-phenyl)-urea]	–	–	−96.7%	−316.9%	>80.3 nmol	>30 µg	0.028	–	–	–	15.85 nmol	5.92 µg	4.03	1.5%	100%*	0.45 ± 0.05 nM	–
Cc1cccc(NC(=O)Nc2ccc(-c3csc4ncnc(N)c34)cc2)c1 [Compound II, 1-[4-(4-Amino-thieno[2,3-d]pyrimidin-5-yl)-phenyl]-3-m-tolyl-urea]	2 μg/0.1% = 40.6%	20 μg/1.0% = 69.0%*	85.2%*	85.7%*	7.62 nmol	2.86 µg	0.392*	24.31 nmol	9.13 µg	2.3	12.17 nmol	4.57 µg	6.23	32.2%	100%*	0.11 nM	Relative Potency vs Reference ([3]; BREC proliferation, relative to reference standard RTKi): 14.5 ± 15.1
B1	–	–	–	–	–	–	–	–	–	–	–	–	–	–	–	–	treated patients with maintained best-corrected visual acuity (BCVA) [6]: 95%
